# Laboratory results reported in patent publication US12478680B2, “Hydrogels with biodegradable crosslinking” (ProLynx LLC, priority 2011, dated 2025).
# Settings: pH 7.4
row,Substance,t1/2 for release into solution [min]
1,carbonic anhydrase,24
2,myoglobin,~20
